Assay results reported in patent US9808466B2, “Macrocyclic compounds as protein kinase inhibitors” (Fundación Centro Nacional de Investigaciones Oncologicas …, priority 2011, dated 2017).
Read-outs that look alike come from different tables or passages of the source.

Experiments:
mTOR = target: T1, mTOR (Homo sapiens, UniProt P42345); experiment: mTOR assay (LanthaScreen kinase activity assay); format: biochemical
T1 construct: purchased Invitrogen PV4754
Procedure: The enzymatic mTOR activity was measured using a LanthaScreen™ kinase activity assay (Invitrogen). The enzyme was purchased from Invitrogen (PV4754), as well as the GFP-labeled substrate (4EBP1-GFP; PV4759) and the Tb-anti-p4EBP1(pThr46) antibody (PV4757). The assay was performed in 50 mM HEPES buffer, pH 7.5, containing 1.5 mM MnCl2, 10 mM MgCl2, 1 mM EGTA, 2.5 mM DTT and 0.01% Tween-20. The concentration of the assay components were the following: 0.24 nM mTOR kinase, 400 nM 4EBP1-GFP, […] and serial dilutions of the compound (inhibitor) to be evaluated. After 1 h incubation at room temperature, 20 mM EDTA was used to stop the reaction and terbium-labeled antibody (4 nM) added to detect phosphorylated product. The antibody associates with the phosphorylated product resulting in an increased TR-FRET value. The TR-FRET value (a dimensionless number) was calculated as the ratio of the acceptor signal (GFP, emission at 520 nm) to the donor signal (terbium, emission at 495 nm). Values were plotted against the inhibitor concentration and fitted to a sigmoid dose-response curve using GraphPad software.

PI3K (p110α/p85α) = target: T2, PI3K (p110α/p85α) (Homo sapiens, UniProt P42336); experiment: PI3K activity assay (ADP Hunter Plus); format: biochemical
T2 construct: purchased Carna Biosciences 07CBS-0402A
T2 sequence (P42336 whole entry): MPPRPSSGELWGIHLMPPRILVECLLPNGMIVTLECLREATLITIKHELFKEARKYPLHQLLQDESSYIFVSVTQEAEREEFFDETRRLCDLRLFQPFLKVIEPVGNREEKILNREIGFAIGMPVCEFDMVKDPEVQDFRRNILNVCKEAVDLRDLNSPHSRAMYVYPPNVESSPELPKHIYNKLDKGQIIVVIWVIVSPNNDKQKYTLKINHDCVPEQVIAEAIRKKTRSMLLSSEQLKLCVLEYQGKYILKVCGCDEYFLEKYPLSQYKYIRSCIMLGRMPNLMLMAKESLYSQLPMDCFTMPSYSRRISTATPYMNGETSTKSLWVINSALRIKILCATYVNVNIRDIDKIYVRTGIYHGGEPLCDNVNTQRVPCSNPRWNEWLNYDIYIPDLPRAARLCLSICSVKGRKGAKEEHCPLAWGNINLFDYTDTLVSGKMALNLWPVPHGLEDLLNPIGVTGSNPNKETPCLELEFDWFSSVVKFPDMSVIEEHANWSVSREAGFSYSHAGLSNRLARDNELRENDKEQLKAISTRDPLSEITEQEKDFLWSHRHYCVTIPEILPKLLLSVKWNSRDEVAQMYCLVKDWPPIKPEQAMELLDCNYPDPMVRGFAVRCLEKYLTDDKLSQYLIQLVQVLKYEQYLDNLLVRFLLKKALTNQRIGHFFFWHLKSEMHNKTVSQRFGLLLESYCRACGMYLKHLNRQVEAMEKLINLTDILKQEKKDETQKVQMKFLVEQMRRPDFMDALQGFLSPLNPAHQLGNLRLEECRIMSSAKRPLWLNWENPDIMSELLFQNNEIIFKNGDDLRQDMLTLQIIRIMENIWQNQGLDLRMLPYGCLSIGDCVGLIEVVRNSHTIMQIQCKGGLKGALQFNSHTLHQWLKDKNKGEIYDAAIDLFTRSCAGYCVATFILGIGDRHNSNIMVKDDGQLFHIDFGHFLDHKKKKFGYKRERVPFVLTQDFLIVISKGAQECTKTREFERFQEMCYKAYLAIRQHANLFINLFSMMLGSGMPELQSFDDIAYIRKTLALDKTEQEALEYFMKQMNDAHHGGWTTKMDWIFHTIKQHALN
T2 sequence (P27986 whole entry partner): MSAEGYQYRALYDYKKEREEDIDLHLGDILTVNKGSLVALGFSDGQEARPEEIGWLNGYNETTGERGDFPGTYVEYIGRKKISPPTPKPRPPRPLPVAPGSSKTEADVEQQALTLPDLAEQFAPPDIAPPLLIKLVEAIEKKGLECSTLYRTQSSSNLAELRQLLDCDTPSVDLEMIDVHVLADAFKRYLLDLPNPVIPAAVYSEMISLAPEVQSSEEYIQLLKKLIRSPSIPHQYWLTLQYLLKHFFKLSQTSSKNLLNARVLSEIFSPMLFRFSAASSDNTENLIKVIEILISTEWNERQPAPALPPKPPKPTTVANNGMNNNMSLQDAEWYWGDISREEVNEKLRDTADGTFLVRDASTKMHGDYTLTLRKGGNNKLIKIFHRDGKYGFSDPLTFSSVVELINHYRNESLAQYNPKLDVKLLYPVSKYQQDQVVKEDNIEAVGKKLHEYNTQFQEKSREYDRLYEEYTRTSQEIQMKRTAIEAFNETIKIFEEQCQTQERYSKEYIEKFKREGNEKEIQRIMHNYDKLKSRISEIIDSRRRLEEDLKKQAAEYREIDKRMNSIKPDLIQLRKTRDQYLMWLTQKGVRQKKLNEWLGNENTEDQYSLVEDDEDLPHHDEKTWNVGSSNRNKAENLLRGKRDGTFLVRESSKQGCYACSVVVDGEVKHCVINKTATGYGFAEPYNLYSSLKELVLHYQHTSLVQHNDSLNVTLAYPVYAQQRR
Procedure: The kinase activity was measured by using the commercial ADP Hunter™ Plus assay available from DiscoveRx (#33-016), which is a homogeneous assay to measure the accumulation of ADP, a universal product of kinase activity. […] Reaction was carried out for 1 hour at 25° C. Reagent A and B were sequentially added to the wells and plates were incubated for 30 min at 37° C. Fluorescence counts were read in a Victor instrument (Perkin Elmer) with the recommended settings (544 and 580 nm as excitation and emission wavelengths, respectively). Values were normalized against the control activity included for each enzyme (i.e., 100% PI3 kinase activity, without compound). These values were plotted against the inhibitor concentration and were fit to a sigmoid dose-response curve by using the Graphad software.

PIM-1 = target: T3, PIM-1 (Homo sapiens, UniProt P11309); experiment: PIM-1 biochemical assay (ADP Hunter); conditions: PIM1
T3 construct: histidine tag (C); made in house
T3 sequence (P11309 whole entry): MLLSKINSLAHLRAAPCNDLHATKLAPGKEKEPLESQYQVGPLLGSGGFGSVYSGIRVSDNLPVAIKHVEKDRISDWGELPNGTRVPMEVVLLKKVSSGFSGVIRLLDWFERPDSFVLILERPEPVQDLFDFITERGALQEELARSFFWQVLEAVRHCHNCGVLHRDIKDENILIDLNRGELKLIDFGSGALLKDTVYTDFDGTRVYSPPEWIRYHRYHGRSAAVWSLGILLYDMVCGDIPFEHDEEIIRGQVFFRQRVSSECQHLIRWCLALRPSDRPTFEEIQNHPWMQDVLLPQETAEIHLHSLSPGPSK
Source text: The biochemical assay to measure PIM-1 activity relies on the ADP Hunter assay kit (DiscoveRx Corp., Cat. #90-0077), that determines the amount of ADP as direct product of the kinase enzyme activity.
The enzyme has been expressed and purified in-house as a recombinant human protein with a C-terminal histidine tag. The protein is active and stable.
Assay conditions were as indicated by the kit manufacturers with the following adaptations for the kinase activity step: • Kinase assay buffer and assay volume stay as recommended (15 mM HEPES, pH 7.4, 20 mM NaCl, 1 mM EGTA, 0.02% Tween 20, 10 mM MgCl2 and 0.1 mg/ml bovine γ-globulins/75 μl assay volume) • Incubation time and temperature: 60 min at 30° C. • PIM-1 concentration: 50 pg/μl • ATP concentration: 100 μM • PIM-1 substrate peptide: PIMtide ([…]) (SEQIDNO. 1) • Peptide concentration: 60 μM • Positive control for kinase activity inhibition: 1-10 μM Staurosporine • DMSO concentration have to stay below 2% during the kinase reaction
Assays were performed in either 96 or 384-well plates. The final outcome of the coupled reactions provided by the kit is the release of the fluorescent product Resorufin and has been measured with a multilabel HTS counter VICTOR V (PerkinElmer) using an excitation filter at 544 nm and an emission filter at 580 nm.

[1] = read-out: mTOR activity, IC50 (semi-quantitative class)
[2] = read-out: mTOR actual IC50 (in parentheses)
[3] = read-out: PI3K alpha activity, IC50 (semi-quantitative class)
[4] = read-out: PI3K alpha actual IC50 (in parentheses)
[5] = read-out: PIM-1 activity, IC50 (semi-quantitative class)
[6] = read-out: PIM-1 actual IC50 (in parentheses)

T1 sequence (P42345 1360-2549 limits assumed): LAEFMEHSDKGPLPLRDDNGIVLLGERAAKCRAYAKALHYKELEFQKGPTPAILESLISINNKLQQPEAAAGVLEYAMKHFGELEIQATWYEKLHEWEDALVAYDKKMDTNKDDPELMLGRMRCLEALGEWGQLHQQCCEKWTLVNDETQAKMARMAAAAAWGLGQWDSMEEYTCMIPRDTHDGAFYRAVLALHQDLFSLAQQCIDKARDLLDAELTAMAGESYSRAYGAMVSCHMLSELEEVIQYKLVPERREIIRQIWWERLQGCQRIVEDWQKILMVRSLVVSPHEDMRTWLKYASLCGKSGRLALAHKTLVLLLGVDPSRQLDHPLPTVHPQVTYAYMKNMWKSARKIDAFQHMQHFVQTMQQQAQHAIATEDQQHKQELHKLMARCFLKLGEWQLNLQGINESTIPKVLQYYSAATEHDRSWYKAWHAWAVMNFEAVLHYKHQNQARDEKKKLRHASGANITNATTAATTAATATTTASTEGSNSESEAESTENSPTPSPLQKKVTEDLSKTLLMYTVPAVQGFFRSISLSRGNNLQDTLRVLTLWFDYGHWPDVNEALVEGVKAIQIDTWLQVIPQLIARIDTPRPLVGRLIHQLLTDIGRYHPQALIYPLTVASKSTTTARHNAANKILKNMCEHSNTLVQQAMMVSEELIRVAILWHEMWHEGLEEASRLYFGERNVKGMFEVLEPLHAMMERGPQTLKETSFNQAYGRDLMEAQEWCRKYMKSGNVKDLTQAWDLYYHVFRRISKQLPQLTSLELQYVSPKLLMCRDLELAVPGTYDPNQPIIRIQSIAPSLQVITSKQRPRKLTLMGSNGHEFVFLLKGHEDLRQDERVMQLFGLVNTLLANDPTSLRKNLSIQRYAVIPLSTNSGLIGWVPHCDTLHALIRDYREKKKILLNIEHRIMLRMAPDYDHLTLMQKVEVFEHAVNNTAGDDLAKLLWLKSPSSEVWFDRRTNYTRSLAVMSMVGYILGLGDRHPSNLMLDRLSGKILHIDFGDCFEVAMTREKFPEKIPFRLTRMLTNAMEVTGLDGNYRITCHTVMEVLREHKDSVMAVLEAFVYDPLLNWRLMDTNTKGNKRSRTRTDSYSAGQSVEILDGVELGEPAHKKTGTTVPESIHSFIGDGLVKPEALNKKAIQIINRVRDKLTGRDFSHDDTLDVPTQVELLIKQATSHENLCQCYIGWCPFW

SMILES	IC50 (mTOR; [1])	IC50 (mTOR; [2])	IC50 (PI3K (p110α/p85α); [3])	IC50 (PI3K (p110α/p85α); [4])	IC50 (PIM-1; [5])	IC50 (PIM-1; [6])
COc1ncc2cc1NS(=O)(=O)c1cccc(c1)C(=O)NCCN1CC=C(CC1)c1cnc3ccc-2cn13 [compound 40]	< 100 nM	36 nM	< 100 nM	3 nM	> 1000 nM	
COc1ncc2cc1NS(=O)(=O)c1cccc(c1)C(=O)NCc1cncc(c1)-c1ncnc3ccc-2cc13 [compound 41]	< 100 nM	16 nM	< 100 nM	3 nM	> 1000 nM	
COc1ncc2cc1NS(=O)(=O)c1cccc(c1)C(=O)NCc1cc(ccn1)-c1ncnc3c1SC2=C3 [compound 42]	> 1000 nM		100 to 1000 nM		100 to 1000 nM	
O=C1NCc2cc(ccn2)-c2ncnc3c2SC(=C3)c2cncc(c2)NS(=O)(=O)c2cccc1c2 [compound 43]	> 1000 nM		< 100 nM	44 nM	< 100 nM	41 nM
COc1ncc2cc1NS(=O)(=O)c1cc(c(F)cc1F)C(=O)NCc1cncc(c1)-c1ncnc3c1SC2=C3 [compound 44]	> 1000 nM		100 to 1000 nM		> 1000 nM	
O=C1NCc2cncc(c2)-c2ncnc3c2SC(=C3)c2cnc(O)c(c2)NS(=O)(=O)c2cccc1c2 [compound 45]	> 1000 nM		> 1000 nM		100 to 1000 nM	
COc1ncc2cc1N(C)S(=O)(=O)c1cccc(c1)C(=O)NCc1cncc(c1)-c1ncnc3c1SC2=C3 [compound 46]	> 1000 nM		> 1000 nM		> 1000 nM	
COc1ncc2cc1NS(=O)(=O)c1cccc(c1)C(=O)Nc1cncc(c1)-c1ncnc3c1SC2=C3 [compound 47]	< 100 nM	8.5 nM	< 100 nM	99 nM	> 1000 nM	
COc1ncc2cc1NS(=O)(=O)c1ccc(F)c(c1)C(=O)NCc1cncc(c1)-c1ncnc3c1SC2=C3 [compound 48]	> 1000 nM		< 100 nM	48 nM	< 100 nM	52 nM
O=C1NCc2cncc(c2)-c2ccnc3ccc(cc23)-c2cncc(c2)NS(=O)(=O)c2cccc1c2 [compound 49]	100 to 1000 nM		< 100 nM	68 nM	> 1000 nM	
CC(C)Oc1ncc2cc1NS(=O)(=O)c1cccc(c1)C(=O)NCc1cncc(c1)-c1ncnc3c1SC2=C3 [compound 50]	> 1000 nM		> 1000 nM		> 1000 nM	
COc1ncc2cc1NS(=O)(=O)c1cccc(c1)C(=O)NCCn1cc(cn1)-c1ncnc3c1OC2=C3 [compound 51]	> 1000 nM		100 to 1000 nM		> 1000 nM	
COc1ncc2cc1NS(=O)(=O)c1cc(ccc1F)C(=O)NCc1cncc(c1)-c1ncnc3c1SC2=C3 [compound 52]	> 1000 nM		100 to 1000 nM		100 to 1000 nM	
COc1ncc2cc1NS(=O)(=O)c1cc(cc(C(F)(F)F)c1)C(=O)NCc1cncc(c1)-c1ncnc3c1SC2=C3 [compound 53]	> 1000 nM		> 1000 nM		> 1000 nM	
COc1ncc2cc1NS(=O)(=O)c1cccc(c1)C(=O)NCc1cncc(c1)-c1nc(C)nc3c1SC2=C3 [compound 54]	> 1000 nM		100 to 1000 nM		> 1000 nM	
COc1ncc2cc1NS(=O)(=O)c1cccc(c1)C(=O)NCC1=CC=C(S1)c1ncnc3c1SC2=C3 [compound 55]	> 1000 nM		100 to 1000 nM		< 100 nM	12 nM
COc1ncc2cc1NS(=O)(=O)c1cccc(c1)C(=O)NCc1cncc(c1)-c1ncnc3c1SC2=C3C [compound 56]	100 to 1000 nM		< 100 nM	13 nM	< 100 nM	56 nM
COc1ncc2cc1NS(=O)(=O)c1cccc(c1)C(=O)NCCn1cc(cn1)-c1ncnc3c1SC2=C3C [compound 57]	100 to 1000 nM		< 100 nM	0.8 nM	100 to 1000 nM	

SMILES	IC50 (mTOR; [1])	IC50 (mTOR; [2])	IC50 (PI3K (p110α/p85α); [3])	IC50 (PI3K (p110α/p85α); [4])	IC50 (PIM-1; [5])	IC50 (PIM-1; [6])
O=C1NCc2cncc(c2)-c2ncnc3c2SC(=C3)c2cnc(Cl)c(c2)NS(=O)(=O)c2cccc1c2 [compound 58]	> 1000 nM		< 100 nM	3.6 nM	100 to 1000 nM	
CC(C)Oc1ncc2cc1NS(=O)(=O)c1cccc(c1)C(=O)NCCn1cc(cn1)-c1ncnc3c1SC2=C3 [compound 59]	> 1000 nM		> 1000 nM		> 1000 nM	
COc1ncc2cc1NS(=O)(=O)c1cccc(c1)C(=O)NCc1cncc(c1)-c1nc(C(C)C)nc3c1SC2=C3 [compound 60]	> 1000 nM		> 1000 nM		> 1000 nM	
COc1ncc2cc1NS(=O)(=O)c1cccc(c1)C(=O)NCCn1cc(cn1)-c1nc(C(C)C)nc3c1SC2=C3 [compound 61]	> 1000 nM		> 1000 nM		> 1000 nM	
COc1ncc2cc1NS(=O)(=O)c1cccc(c1)C(=O)NCc1cncc(c1)-c1ccnc3c1SC2=C3 [compound 62]	> 1000 nM		100 to 1000 nM		< 100 nM	31 nM
COc1ncc2cc1NS(=O)(=O)c1cccc(c1)C(=O)NC[C@H]1CN(CCO1)c1ncnc3c1SC2=C3 [compound 64]	> 1000 nM		> 1000 nM		100 to 1000 nM	
COc1ncc2cc1NS(=O)(=O)c1cccc(c1)C(=O)NCc1cc(ccc1F)-c1ncnc3c1SC2=C3 [compound 65]	> 1000 nM		100 to 1000 nM		> 1000 nM	
COc1ncc2cc1NS(=O)(=O)c1cccc(c1)C(=O)NC[C@@H]1CN(CCO1)c1ncnc3c1SC2=C3 [compound 66]	> 1000 nM		100 to 1000 nM		< 100 nM	88 nM
COc1ncc2cc1NS(=O)(=O)c1cc(c(F)cc1F)C(=O)NCc1cccc(c1)-c1cnn3ccc-2nc13 [compound 67]	< 100 nM	12 nM	< 100 nM	0.5 nM	> 1000 nM	
COc1ncc2cc1NS(=O)(=O)c1cccc(c1)C(=O)NCC1=CC=C(O1)c1ncnc3c1SC2=C3 [compound 69]	> 1000 nM		100 to 1000 nM		100 to 1000 nM	
COc1ncc2cc1NS(=O)(=O)c1cccc(c1)C(=O)NCCCNc1ncnc3c1SC2=C3 [compound 70]	> 1000 nM		> 1000 nM		100 to 1000 nM	
COc1ncc2cc1NS(=O)(=O)c1cc(c(F)cc1F)C(=O)NCc1cncc(c1)-c1ccnc3ccc-2nc13 [compound 71]	< 100 nM	25 nM	< 100 nM	0.15 nM	> 1000 nM	
COc1ncc2cc1NS(=O)(=O)c1cccc(c1)C(=O)NCc1cc(F)cc(c1)-c1ncnc3c1SC2=C3 [compound 72]	> 1000 nM		> 1000 nM		100 to 1000 nM	
COc1ncc2cc1NS(=O)(=O)c1cccc(c1)C(=O)NCC1=CC=C(S1)c1c(C#N)cnc3c1SC2=C3 [compound 73]	> 1000 nM		> 1000 nM		< 100 nM	45 nM
COc1ncc2cc1NS(=O)(=O)c1cccc(c1)C(=O)NCc1csc(c1)-c1ncnc3c1SC2=C3 [compound 77]	> 1000 nM		100 to 1000 nM		< 100 nM	17 nM
COc1ncc2cc1NS(=O)(=O)c1cccc(c1)C(=O)NCC1=CC=C(S1)c1ccnc3[nH]c-2cc13 [compound 78]	> 1000 nM		100 to 1000 nM		100 to 1000 nM	
COc1ncc2cc1NS(=O)(=O)c1cccc(c1)C(=O)NCc1nc(cs1)-c1ncnc3c1SC2=C3 [compound 79]	> 1000 nM		100 to 1000 nM		> 1000 nM	
